Key:
[1] = target: T1, Free fatty acid receptor 4 (Homo sapiens) (UniProt Q5NUL3); assay: Agonist activity at human GPR120 expressed in CHOK1 cells measured after 60 mins by IP1-HTRF assay relative to basal level; format: functional, cell-based; design: concentration or dose not given beside the values; details: CHO-K1
T1 sequence (whole entry): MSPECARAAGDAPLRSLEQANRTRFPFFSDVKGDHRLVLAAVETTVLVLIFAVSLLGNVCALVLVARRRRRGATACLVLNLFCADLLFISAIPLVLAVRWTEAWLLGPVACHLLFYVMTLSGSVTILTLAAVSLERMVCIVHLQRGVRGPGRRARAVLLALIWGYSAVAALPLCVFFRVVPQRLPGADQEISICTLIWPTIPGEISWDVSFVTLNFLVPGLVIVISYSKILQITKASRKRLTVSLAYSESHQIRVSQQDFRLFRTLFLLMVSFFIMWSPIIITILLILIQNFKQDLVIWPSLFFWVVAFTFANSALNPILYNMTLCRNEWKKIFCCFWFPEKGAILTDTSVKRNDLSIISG

[2] = target: T2, Free fatty acid receptor 4 (Mus musculus, UniProt Q7TMA4); assay: Agonist activity at mouse GPR120 expressed in CHOK1 cells measured after 60 mins by IP1-HTRF assay; format: functional, cell-based, CHO-K1
T2 sequence (Q7TMA4 whole entry): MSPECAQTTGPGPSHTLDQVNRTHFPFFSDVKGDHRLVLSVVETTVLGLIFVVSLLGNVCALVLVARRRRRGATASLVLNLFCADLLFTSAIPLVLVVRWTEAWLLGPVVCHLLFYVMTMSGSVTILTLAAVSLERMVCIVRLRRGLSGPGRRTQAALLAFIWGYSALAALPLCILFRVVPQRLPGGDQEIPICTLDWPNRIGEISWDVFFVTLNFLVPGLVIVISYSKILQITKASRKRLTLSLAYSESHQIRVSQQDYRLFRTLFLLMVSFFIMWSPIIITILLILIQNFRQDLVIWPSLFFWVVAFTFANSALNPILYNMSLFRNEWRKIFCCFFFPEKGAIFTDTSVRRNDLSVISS

[3] = target: T3, Free fatty acid receptor 1 (Homo sapiens, UniProt O14842); assay: Agonist activity at human GPR40 measured after 60 mins by IP1-HTRF assay; format: functional
T3 sequence (O14842 whole entry): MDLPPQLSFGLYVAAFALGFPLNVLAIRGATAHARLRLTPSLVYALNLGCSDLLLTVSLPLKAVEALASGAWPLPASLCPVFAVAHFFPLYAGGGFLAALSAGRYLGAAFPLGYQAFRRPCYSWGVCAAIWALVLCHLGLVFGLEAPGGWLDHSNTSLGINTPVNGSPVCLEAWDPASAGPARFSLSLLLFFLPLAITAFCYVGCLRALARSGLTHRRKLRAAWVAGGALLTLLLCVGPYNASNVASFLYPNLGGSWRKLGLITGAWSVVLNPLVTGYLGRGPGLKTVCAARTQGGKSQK

[4] = target: T4, Free fatty acid receptor 4 (Homo sapiens, UniProt Q5NUL3); assay: Agonist activity at human GPR120 expressed in CHOK1 cells measured after 60 mins by IP1-HTRF assay; format: functional, cell-based, CHO-K1
T4 sequence (Q5NUL3 whole entry): T1 sequence (whole entry)

[5] = target: T5, Free fatty acid receptor 4 (Mus musculus) (UniProt Q7TMA4); assay: Agonist activity at mouse GPR120 expressed in CHOK1 cells measured after 60 mins by IP1-HTRF assay relative to basal level; format: functional, cell-based; design: concentration or dose not given beside the values; details: CHO-K1
T5 sequence (whole entry): T2 sequence (Q7TMA4 whole entry)

[6] = target: T3, Free fatty acid receptor 1; assay: Agonist activity at human GPR40 measured after 60 mins by IP1-HTRF assay relative to basal level; format: functional; design: concentration or dose not given beside the values
Cytochrome P450 3A4 = Cytochrome P450 3A4 (Homo sapiens, UniProt P08684); assay: Inhibition of CYP3A4 (unknown origin); format: ADME
Sequence of Cytochrome P450 3A4 (P08684 whole entry): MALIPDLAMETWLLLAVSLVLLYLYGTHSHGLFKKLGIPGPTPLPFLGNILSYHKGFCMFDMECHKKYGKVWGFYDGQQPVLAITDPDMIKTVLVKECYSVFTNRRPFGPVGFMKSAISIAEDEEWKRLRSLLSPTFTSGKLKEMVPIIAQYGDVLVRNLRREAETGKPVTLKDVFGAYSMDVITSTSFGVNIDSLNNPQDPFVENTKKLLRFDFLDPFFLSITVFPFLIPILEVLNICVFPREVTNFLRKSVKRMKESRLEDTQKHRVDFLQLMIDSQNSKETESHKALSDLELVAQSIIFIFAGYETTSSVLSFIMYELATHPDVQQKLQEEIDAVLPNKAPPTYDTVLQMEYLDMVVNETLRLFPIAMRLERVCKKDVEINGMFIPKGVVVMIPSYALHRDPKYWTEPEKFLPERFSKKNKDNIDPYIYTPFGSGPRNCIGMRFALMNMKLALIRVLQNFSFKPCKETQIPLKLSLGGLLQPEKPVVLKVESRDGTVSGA

Cytochrome P450 2C9 = Cytochrome P450 2C9 (Homo sapiens, UniProt P11712); assay: Inhibition of CYP2C9 (unknown origin); format: ADME
Sequence of Cytochrome P450 2C9 (P11712 whole entry): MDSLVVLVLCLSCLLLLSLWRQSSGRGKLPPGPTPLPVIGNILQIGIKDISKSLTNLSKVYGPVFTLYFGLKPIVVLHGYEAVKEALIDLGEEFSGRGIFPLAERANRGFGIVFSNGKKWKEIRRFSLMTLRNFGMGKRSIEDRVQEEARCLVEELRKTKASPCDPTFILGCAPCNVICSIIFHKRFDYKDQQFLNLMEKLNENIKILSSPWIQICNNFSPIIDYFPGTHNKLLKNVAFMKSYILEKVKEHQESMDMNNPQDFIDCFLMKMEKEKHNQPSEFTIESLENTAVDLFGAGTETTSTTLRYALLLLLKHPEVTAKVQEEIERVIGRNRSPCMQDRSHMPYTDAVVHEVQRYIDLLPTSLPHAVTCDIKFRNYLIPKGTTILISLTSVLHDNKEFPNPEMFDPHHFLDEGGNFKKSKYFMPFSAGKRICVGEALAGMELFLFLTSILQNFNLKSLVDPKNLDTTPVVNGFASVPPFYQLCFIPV

[7] = target: Sodium channel protein type 5 subunit alpha (Homo sapiens, UniProt Q14524); assay: Inhibition of Nav1.5 (unknown origin)
Sequence of Sodium channel protein type 5 subunit alpha (Q14524 whole entry): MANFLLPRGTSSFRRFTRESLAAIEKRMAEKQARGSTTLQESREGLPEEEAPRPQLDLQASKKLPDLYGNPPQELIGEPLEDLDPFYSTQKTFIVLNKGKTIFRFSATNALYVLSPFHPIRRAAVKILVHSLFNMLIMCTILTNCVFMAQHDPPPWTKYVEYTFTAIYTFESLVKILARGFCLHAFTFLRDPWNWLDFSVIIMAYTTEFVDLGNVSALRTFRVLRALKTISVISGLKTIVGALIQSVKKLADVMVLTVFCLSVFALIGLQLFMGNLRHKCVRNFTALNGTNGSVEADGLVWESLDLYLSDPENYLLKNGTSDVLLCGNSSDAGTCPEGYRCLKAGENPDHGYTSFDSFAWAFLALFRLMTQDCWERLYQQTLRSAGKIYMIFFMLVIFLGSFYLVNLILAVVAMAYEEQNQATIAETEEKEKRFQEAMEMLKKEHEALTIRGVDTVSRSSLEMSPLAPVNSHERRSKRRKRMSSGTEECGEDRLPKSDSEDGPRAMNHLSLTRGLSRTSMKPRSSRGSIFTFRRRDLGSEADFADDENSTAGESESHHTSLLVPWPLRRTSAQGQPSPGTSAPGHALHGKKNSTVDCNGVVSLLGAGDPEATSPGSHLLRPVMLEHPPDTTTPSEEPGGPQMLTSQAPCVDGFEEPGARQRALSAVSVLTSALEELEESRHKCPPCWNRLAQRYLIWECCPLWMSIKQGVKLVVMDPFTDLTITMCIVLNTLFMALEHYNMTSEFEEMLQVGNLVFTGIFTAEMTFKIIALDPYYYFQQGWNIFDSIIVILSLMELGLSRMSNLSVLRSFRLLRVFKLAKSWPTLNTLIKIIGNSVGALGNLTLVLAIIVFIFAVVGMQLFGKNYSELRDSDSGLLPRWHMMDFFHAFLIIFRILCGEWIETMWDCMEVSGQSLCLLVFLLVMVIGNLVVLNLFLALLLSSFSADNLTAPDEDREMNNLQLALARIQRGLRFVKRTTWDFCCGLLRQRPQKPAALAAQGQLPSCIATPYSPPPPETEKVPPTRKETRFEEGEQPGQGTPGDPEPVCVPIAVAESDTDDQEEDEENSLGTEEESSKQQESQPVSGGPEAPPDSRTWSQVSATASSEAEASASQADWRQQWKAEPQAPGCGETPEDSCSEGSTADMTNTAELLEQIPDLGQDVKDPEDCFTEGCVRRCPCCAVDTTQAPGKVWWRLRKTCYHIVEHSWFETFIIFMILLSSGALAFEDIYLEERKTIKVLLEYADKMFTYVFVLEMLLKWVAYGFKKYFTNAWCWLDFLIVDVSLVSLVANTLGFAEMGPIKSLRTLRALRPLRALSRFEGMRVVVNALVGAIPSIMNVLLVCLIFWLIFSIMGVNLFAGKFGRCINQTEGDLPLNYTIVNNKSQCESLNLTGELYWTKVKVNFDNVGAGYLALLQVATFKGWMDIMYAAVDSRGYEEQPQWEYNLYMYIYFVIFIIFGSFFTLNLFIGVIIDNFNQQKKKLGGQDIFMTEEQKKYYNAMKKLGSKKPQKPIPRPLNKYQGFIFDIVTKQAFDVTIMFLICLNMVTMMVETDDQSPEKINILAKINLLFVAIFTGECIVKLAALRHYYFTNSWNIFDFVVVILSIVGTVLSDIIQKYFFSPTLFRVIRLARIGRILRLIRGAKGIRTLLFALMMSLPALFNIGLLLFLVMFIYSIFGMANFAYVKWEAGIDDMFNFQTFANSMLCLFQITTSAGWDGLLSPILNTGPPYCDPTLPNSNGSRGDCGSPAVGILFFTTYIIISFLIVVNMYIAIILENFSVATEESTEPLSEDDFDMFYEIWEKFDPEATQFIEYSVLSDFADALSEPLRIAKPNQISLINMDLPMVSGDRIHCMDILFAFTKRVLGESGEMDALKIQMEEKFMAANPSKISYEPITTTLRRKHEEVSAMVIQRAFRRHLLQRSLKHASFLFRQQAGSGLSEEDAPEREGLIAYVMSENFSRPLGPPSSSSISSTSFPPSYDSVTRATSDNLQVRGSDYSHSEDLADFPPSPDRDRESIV

[8] = Oral bioavailability in mouse at 10 mg/kg; format: ADME, organism-based; details: in vivo
[9] = Volume of distribution in mouse at 2 mg/kg, iv or 10 mg/kg, po; format: ADME, organism-based; details: in vivo
[10] = Clearance in mouse at 2 mg/kg, iv or 10 mg/kg, po; format: ADME, organism-based; details: in vivo
[11] = Half life in mouse at 2 mg/kg, iv or 10 mg/kg, po; format: ADME, organism-based; details: in vivo
[12] = target: Voltage-dependent L-type calcium channel subunit alpha-1C (Homo sapiens, UniProt Q13936); assay: Inhibition of Cav1.2 (unknown origin)
Cytochrome P450 2D6 = Cytochrome P450 2D6 (Homo sapiens, UniProt P10635); assay: Inhibition of CYP2D6 (unknown origin); format: ADME
Sequence of Cytochrome P450 2D6 (P10635 whole entry): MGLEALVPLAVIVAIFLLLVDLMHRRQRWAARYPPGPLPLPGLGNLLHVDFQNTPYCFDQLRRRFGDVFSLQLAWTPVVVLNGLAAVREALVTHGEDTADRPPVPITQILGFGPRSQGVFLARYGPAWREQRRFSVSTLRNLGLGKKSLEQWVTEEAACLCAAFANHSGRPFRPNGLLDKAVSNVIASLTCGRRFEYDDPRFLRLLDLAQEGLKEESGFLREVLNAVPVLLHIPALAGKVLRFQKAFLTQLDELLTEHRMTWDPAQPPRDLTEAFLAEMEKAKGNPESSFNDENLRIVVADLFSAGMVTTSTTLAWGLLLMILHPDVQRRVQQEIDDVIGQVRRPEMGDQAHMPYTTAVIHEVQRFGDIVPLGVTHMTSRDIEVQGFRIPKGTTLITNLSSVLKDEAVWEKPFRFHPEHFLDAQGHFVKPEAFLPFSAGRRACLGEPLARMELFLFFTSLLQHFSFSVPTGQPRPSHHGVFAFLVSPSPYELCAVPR

[13] = Protein binding in mouse plasma; format: ADME, cell-free; details: read-out: PPB (converted)
[14] = Cmax in mouse at 2 mg/kg, iv or 10 mg/kg, po; format: ADME, organism-based; details: in vivo

| SMILES | Activity [1] | EC50 [2] | EC50 [3] | EC50 [4] | Activity [5] | Activity [6] | other results |
| --- | --- | --- | --- | --- | --- | --- | --- |
| Fc1ccc(OC(F)(F)F)cc1-c1ccc2oc(CCc3nn[nH]n3)cc2c1 |  | 316 nM | > 9950 nM | > 9950 nM | 28% |  |  |
| O=C(O)CCCOc1ccc(-c2ccccc2C(F)(F)F)cc1 | 31% | 2190 nM | > 9950 nM | 8170 nM | 15% |  |  |
| O=C(O)CCCOc1ccc(-c2cccc(OCc3ccccc3)c2)cc1 |  | > 9950 nM | > 9950 nM | > 9950 nM |  |  |  |
| COc1cccc(Oc2cccc(-c3ccc(OCCCC(=O)O)cc3)c2)c1 | 19% | 264 nM | 6310 nM | 498 nM | 20% | 101% |  |
| Cc1ccc(Oc2cccc(-c3ccc(OCCCC(=O)O)cc3)c2)cc1 | 77% | 66 nM | > 9950 nM | 182 nM | 83% |  |  |
| O=C(O)CCCOc1ccc(-c2ccccc2Oc2ccccc2)cc1 | 25% | 418 nM | > 9950 nM | 546 nM | 21% |  |  |
| O=C(O)CCC1Cc2cc(-c3cc(OC(F)(F)F)ccc3F)ccc2O1 (stereo in doubt; 44) [listing 1 of 2 here] | 101% |  |  |  | 68% | 24% |  |
| Cc1cc(OCCCC(=O)O)ccc1-c1cc(OC(F)(F)F)ccc1Cl | 32% | 78 nM | > 9950 nM | 254 nM | 29% |  |  |
| Cc1cc(-c2cc(OC(F)(F)F)ccc2Cl)ccc1OCCCC(=O)O | 57% | 131 nM | 6720 nM | 185 nM | 62% | 37% |  |
| O=C(O)CCCOc1ccc(-c2cc(OC(F)(F)F)ccc2F)cc1 | 16% | 432 nM | 4220 nM | 946 nM | 34% | 91% |  |
| CCOc1ccc(F)c(-c2ccc(OCCCC(=O)O)cc2)c1 | 71% | 140 nM | 3190 nM | 290 nM | 58% | 22% |  |
| O=C(O)CCc1cc2cc(-c3cccc(OC(F)(F)F)c3)ccc2o1 | 48% | 326 nM | 1390 nM | 544 nM | 59% | 43% |  |
| CC(CC(=O)O)c1cc2cc(-c3cc(OC(F)(F)F)ccc3F)ccc2o1 (racemic) | 24% | 74 nM | > 9950 nM | 819 nM | 57% |  |  |
| O=C(O)CCC1Cc2cc(-c3cc(OC(F)(F)F)ccc3F)ccc2O1 (stereo in doubt; 45) [listing 1 of 2 here] |  | 106 nM | 1350 nM | 137 nM |  |  |  |
| CC(Cc1cc2cc(-c3cc(OC(F)(F)F)ccc3F)ccc2o1)C(=O)O (racemic) | 10% | 70 nM | > 9950 nM | 83 nM | 44% |  |  |
| O=C(O)CCCOc1ccc(-c2cccc(Oc3ccccc3)c2)cc1 | 46% | 67 nM | 6800 nM | 170 nM | 58% | 54% |  |
| Cc1cc(-c2cc(OC(F)(F)F)ccc2F)ccc1OCCCC(=O)O | 52% | 79 nM | 9260 nM | 308 nM | 37% | 34% |  |
| O=C(O)CCC1Cc2cc(-c3cc(OC(F)(F)F)ccc3F)ccc2O1 (stereo in doubt; 45) [listing 2 of 2 here] | 49% |  |  |  | 65% | 91% |  |
| O=C(O)CCCOc1ccc(-c2ccccc2OC(F)(F)F)cc1 | 19% | 1870 nM | > 9950 nM | 3000 nM | 20% |  |  |
| O=C(O)c1cc2cc(-c3cc(OC(F)(F)F)ccc3F)ccc2o1 |  | > 9950 nM | > 9950 nM | > 9950 nM |  |  |  |

Continued, in another order:

| Activity [1] | EC50 [2] | EC50 [3] | EC50 [4] | Activity [5] | Activity [6] | SMILES | other results |
| --- | --- | --- | --- | --- | --- | --- | --- |
| 58% | 34 nM | > 9950 nM | 88 nM | 77% |  | O=C(O)CCCOc1ccc(-c2cc(Oc3cccnc3)ccc2Cl)cc1 |  |
| 80% | 34 nM | 3350 nM | 198 nM | 70% | 67% | O=C(O)CCCOc1ccc(-c2cc(Oc3cccc(F)c3)ccc2Cl)cc1 |  |
| 69% | 12 nM | > 9950 nM | 102 nM | 76% |  | O=C(O)CCc1cc2cc(-c3cc(OC(F)(F)F)ccc3Cl)ccc2o1 |  |
| 107% | 27 nM | 9460 nM | 60 nM | 98% | 110% | O=C(O)CCCOc1ccc(-c2cc(Oc3cccc(F)c3)ccc2F)cc1 |  |
| 66% | 32 nM | 1130 nM | 121 nM | 65% | 30% | CCOc1ccc(Cl)c(-c2ccc(OCCCC(=O)O)cc2)c1 |  |
| 68% | 32 nM | > 9950 nM | 66 nM | 61% |  | O=C(O)CCCOc1ccc(-c2cc(OC3CC3)ccc2F)cc1 |  |
| 69% | 7 nM | 5410 nM | 20 nM | 75% | 46% | O=C(O)CCCOc1c(F)cc(-c2cc(OC(F)(F)F)ccc2F)cc1F |  |
| 60% | 36 nM | > 9950 nM | 186 nM | 66% |  | O=C(O)CCCOc1ccc(-c2cc(OC(F)(F)F)ccc2Cl)c(F)c1 |  |
| 50% | 64 nM | > 9950 nM | 188 nM | 55% |  | O=C(O)CCc1cc2cc(-c3cc(Cl)cc(OC4CCC4)c3)ccc2o1 |  |
| 92% | 22 nM | > 9950 nM | 97 nM | 75% |  | O=C(O)CCc1cc2cc(-c3cc(C(=O)C4CC4)ccc3F)ccc2o1 |  |
| 61% | 16 nM | > 9950 nM | 94 nM | 73% |  | Cc1cc(-c2cc(OC(F)(F)F)ccc2Cl)cc(C)c1OCCCC(=O)O | IC50 (Cytochrome P450 3A4): 3280 nM; IC50 (Cytochrome P450 2C9): > 50000 nM; IC50 [7]: 9130 nM; bioavailability [8]: 41%; Vd [9]: 0.95 L/kg; clearance [10]: 4.9 mL/min/kg; half-life [11]: 5.5 h; IC50 [12]: 12800 nM; IC50 (Cytochrome P450 2D6): > 50000 nM; fraction unbound [13]: 0.002; Cmax [14]: 6.1 µM |
| 51% | 28 nM | 2960 nM | 68 nM | 69% | 51% | Cc1cc(OC2CCC2)cc(-c2ccc3oc(CCC(=O)O)cc3c2)c1 |  |
| 87% | 47 nM | > 9950 nM | 149 nM | 86% |  | Cc1cc(-c2cc(OC(F)(F)F)ccc2F)cc(C)c1OCCCC(=O)O |  |
| 65% | 35 nM | 2500 nM | 153 nM | 66% | 40% | O=C(O)CCc1cc2cc(-c3cccc(OC4CCC4)c3)ccc2o1 |  |
| 71% | 29 nM | 3590 nM | 100 nM | 80% | 91% | O=C(O)CCCOc1ccc(-c2cc(Oc3ccccc3)ccc2F)cc1 |  |
|  | 31 nM | 1370 nM | 77 nM |  |  | O=C(O)CCC1Cc2cc(-c3cc(OC(F)(F)F)ccc3F)ccc2O1 (stereo in doubt; 44) [listing 2 of 2 here] |  |
